We go through 74 compounds from the supplement of paper PMC6723410.

The subject of this assay is GUMC-403. The assay is described as follows: viability at highest tested concentration (max response) relative to DMSO (% of DMSO control); higher = less cytotoxic. Particulars: library / dose series: MIPE library, 11-point 1:3 dilution, 48 h. The essentials: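 In 1536-well plates, 700 GUMC-403 papilloma cells per well, taken from a patient and grown by conditional reprogramming, were seeded in 5 μL F + Y medium and incubated overnight at 37 °C. Compounds were pinned in at 23 nL in an 11-point 1:3 series, and left for 48 h before CellTiter-Glo luminescence was read on a ViewLux against vehicle (100%) and empty (0%) wells. Reported values are viability at the highest tested concentration relative to vehicle control.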

In turn, `O=C(O)CCn1c2c(c3ccccc31)C[C@H](N[S+](=O)([O-])c1ccc(F)cc1)CC2` displayed a viability (top concentration 46.1 µM) of 116. Same read-out and setting: for `Cc1cnc(Nc2ccc(F)cc2Cl)nc1-c1c[nH]c(C(=O)N[C@H](CO)c2cccc(Cl)c2)c1` the value was 80.9; for `Cc1ccnc2c1NC(=O)c1cccnc1N2C1CC1`, 138. The same measure, in the same setting: for `O=C(CCCN1CCC(O)(c2ccc(Cl)cc2)CC1)c1ccc(F)cc1` the value was 105; for `C[C@]12CC[C@@H]3c4ccc(O)cc4CC[C@H]3[C@@H]1CC[C@@H]2O`, 86.3.

`CN1[C@@H]2CC(OC(=O)[C@@H](CO)c3ccccc3)C[C@H]1[C@H]1O[C@H]12` (some centres undefined) came in with a viability (top concentration 27.2 µM) of 131.

With `CCc1cncnc1N1CCN(Cc2nc3cc(C(F)(F)F)ccc3[nH]2)CC1`, the viability (top concentration 46.1 µM) was determined as 84.5. The same measure, in the same setting: with `CN1CCN(C(=O)O[C@H]2c3nccnc3C(=O)N2c2ccc(Cl)cn2)CC1` the figure was 117. Take `CC(C)(C)[C@H](NC(=O)c1ccc(N)c(Cl)c1)C(=O)N1CCC[C@H]1C(=O)N[C@H](C#N)CC(=O)O`: under “top concentration 4.61 µM”, the viability was found to be 131. As to `Cc1c(CCOc2ccc(C(=O)O)cc2)c2cc(Cl)ccc2n1C(c1ccccc1)c1ccccc1`, the viability (top concentration 46.1 µM) is 113. Same read-out and setting: for `CN[C@@H]1[C@@H](O)[C@@H](O[C@@H]2[C@@H](O)[C@H](O[C@H]3O[C@H](CN)[C@@H](O)[C@H](O)[C@H]3O)[C@@H](N)C[C@H]2NC(=O)[C@@H](O)CN)OC[C@]1(C)O` the value was 96.8; for `CCOC(=O)O[C@]1(C(=O)OCCl)CC[C@H]2[C@@H]3CCC4=CC(=O)C=C[C@]4(C)[C@H]3[C@@H](O)C[C@@]21C`, 149; for `COc1ccc(-n2c(C)c([N+](=O)[O-])c3ccc(O)cc32)cc1`, 87.

Compound `COc1cc2nccc(Oc3ccc(NC(=O)Nc4cc(C)on4)c(Cl)c3)c2cc1OC` came in with a viability (top concentration 46.1 µM) of 73.5. Still for that read-out and setting: with `CC(C)(C)NCC(O)c1ccc(O)c(CO)c1` (centres undefined) the figure was 109; with `C[C@H](Cc1ccc(O)c(O)c1)[C@@H](C)Cc1ccc(O)c(O)c1`, 110. For `COc1ccc2c(c1OC)C(=O)O[C@H]2[C@H]1c2c(cc3c(c2OC)OCO3)CCN1C`, the viability (top concentration 46.1 µM) came to 103. On the same count and under the same terms, with `CC(C)c1ccc(Cn2ccc3c4c(N)nc(NC5CC5)nc4ccc32)cc1` the figure was 106; with `NC1CCC(Nc2nc(Nc3ccc(C(=O)N4CCCCC4)cc3)c3ncn(-c4cccc(F)c4)c3n2)CC1` (centres undefined), 86. Same read-out and setting: with `C=C[C@H]1CN2CCC1C[C@@H]2[C@@H](O)c1ccnc2ccccc12` (some centres undefined) the figure was 66.8. In turn, `Cn1cc(C[C@@H](N)C(=O)O)c2ccccc21` showed a viability (top concentration 23 µM) of 111. Where the note is “top concentration 46.1 µM”, `Cn1ccc2cc3c(cc21)CCN3C(=O)Nc1cccnc1` displayed a viability of 126. Take `Nc1ccccc1NC(=O)c1ccc(CNc2nccc(-c3cccnc3)n2)cc1`: the viability (top concentration 46.1 µM) stood at 85.9.

In turn, `CC(C)(OCc1nn(Cc2ccccc2)c2ccccc12)C(=O)O` came in with a viability (top concentration 46.1 µM) of 113. Same read-out and setting: with `Cl.O[C@@H](CNC[C@H](O)[C@H]1CCc2cc(F)ccc2O1)[C@@H]1CCc2cc(F)ccc2O1` the figure was 95.8. Take `C[C@@H](NC1=CC=CC=C1C(O)=O)C/2=C/C(=C\N3C(=O)/C=C(\N=C23)N4CCOCC4)C`: the viability (top concentration 92.2 µM) is 34.9.

The compound `CN(C)c1cc(NC(=O)CNC(C)(C)C)c(O)c2c1C[C@H]1C[C@H]3[C@H](N(C)C)C(O)=C(C(N)=O)C(=O)[C@@]3(O)C(O)=C1C2=O` showed a viability (top concentration 46.1 µM) of 110.

The compound `O=C(c1ccc(C(=O)N2CCC(N3CCCC3)CC2)c(Nc2ccccc2)c1)N1CCC(N2CCCC2)CC1` gave a viability (top concentration 46.1 µM) of 109. The same measure, in the same setting: for `COC1=CC(=CC=C1)C2=CC=C(NC(=O)/C3=C(/CCC3)C(O)=O)C(=C2)F` the value was 99.8. The same measure, in the same setting: with `C\C1=C\C(=O)OC2=C1C=CC(=C2)O` the figure was 110; with `Cc1cccc(N(C)C(=S)Oc2ccc3ccccc3c2)c1`, 139. `COC(=O)\C1=C\CCN(C)C1` yielded a viability (top concentration 46.1 µM) of 111. Same read-out and setting: for `O=C(CCCCCCC(=O)Nc1ccccc1)NO` the value was 99; for `N=C1S/C(=C\c2ccc(-c3ccc4c(c3)C(=O)NC4=O)o2)C(=O)N1c1ccc(Br)cc1`, 142; for `N#C/C(=C(/N)Sc1ccc(N)cc1)c1ccccc1C(F)(F)F`, 87.9. Same read-out and setting: with `O=C(CCCCCCC(=O)Nc1cccnc1)NO` the figure was 111; with `CC(C)OC(=O)/C1=C/N(CC(C)(C)C2=C1[NH]C3=CC=CC=C23)C(=O)C4=CC=C(F)C(=C4)F`, 107. On the same count and under the same terms, with `COC(=O)C/1=C(C)/N/C(=C(\C1C2=CC(=CC=C2)[N+]([O-])=O)C(=O)OCCCN3CCC(CC3)(C4=CC=CC=C4)C5=CC=CC=C5)C` (centres undefined) the figure was 128; with `C[S+](=O)([O-])N(Cc1ccco1)CC(O)Cn1c2ccccc2c2ccccc21` (centres undefined), 90.4. In turn, `NC(=O)NO` registered a viability (top concentration 46.1 µM) of 51.9. The same measure, in the same setting: for `COc1ccc(CCN2CCN(CCCc3ccccc3)CC2)cc1OC` the value was 120; for `CC1(C)[C@H](C(=O)O)N2C(=O)C[C@H]2[S+]1(=O)[O-]`, 106; for `CCOC(=O)\C1=C\[C@]2(CC)CCCN3CCC4=C([C@H]23)[N]1C5=C4C=CC=C5`, 83.9. The same measure, in the same setting: with `CO[C@@H]1C(N(C)C(=O)c2ccccc2)C[C@H]2O[C@]1(C)n1c3ccccc3c3c4c(c5c6ccccc6n2c5c31)C(=O)NC4=O` (some centres undefined) the figure was 76.6; with `CC(C)[C@H](O)C(=O)N[C@@H](C)C(=O)N[C@@H]1C(=O)N(C)CCc2ccccc21`, 84.6.

The compound `CCc1nc(-c2cccc(C)c2)c(-c2ccnc(NC(=O)c3ccccc3)c2)s1` registered a viability (top concentration 46.1 µM) of 108. The same measure, in the same setting: with `CC(=O)O[C@@]1(CC[C@H]2[C@@H]3\C=C(C)/C4=C/C(=O)CC[C@]4(C)[C@H]3CC[C@]12C)C(C)=O` the figure was 127.

In the case of `COCCCN1CCC(NC(=O)c2cc(Cl)c(N)c3c2OCC3)CC1`, where the note is “top concentration 46.1 µM”, the viability came to 76.9. On the same count and under the same terms, for `CNCc1ccc(-c2[nH]c3cc(F)cc4c3c2CCNC4=O)cc1` the value was 93.2; for `CC(C)C1CCC(C(=O)N[C@H](Cc2ccccc2)C(=O)O)CC1` (some centres undefined), 85.9. As to `CC(C)(C)c1[nH]cnc1/C=c1\[nH]c(=O)/c(=C/c2ccccc2)[nH]c1=O`, under “top concentration 92.2 µM”, the viability amounted to 95.3. For `C[C@]12Cc3cn[nH]c3C[C@@H]1CC[C@@H]1[C@@H]2CC[C@@]2(C)[C@H]1CC[C@]2(C)O`, under “top concentration 46.1 µM”, the viability stood at 108. In the case of `Cc1ccc(-c2cc(C(F)(F)F)nn2-c2ccc([S+](N)(=O)[O-])cc2)cc1`, under “top concentration 46.1 µM”, the viability is 114.

As for `CCC(C)N(C)C(=O)c1cc2ccccc2c(-c2ccccc2Cl)n1` (centres undefined), the viability (top concentration 46.1 µM) turned out to be 96.7. On the same count and under the same terms, with `Cc1onc(-c2ccccc2Cl)c1C(=O)N[C@@H]1C(=O)N2[C@@H]1SC(C)(C)[C@@H]2C(=O)[O-]` the figure was 111; with `Cc1c(C(=O)c2cccc3ccccc23)c2cccc3c2n1[C@H](CN1CCOCC1)CO3`, 76.9.

Take `OCCn1cc(-c2ccc3c(c2)CC/C3=N\O)c(-c2ccncc2)n1`: the viability (top concentration 46.1 µM) stood at 94.5. The compound `[O-]C(=O)C/1=N/C(=O)NC(=O)N1` had a viability (top concentration 23 µM) of 90.2. Consider `O=C(NC[C@H](O)CO)c1ccncc1Nc1ccc(I)cc1F`, for which the viability (top concentration 46.1 µM) amounted to 72.6. Still for that read-out and setting: for `O=NN(CCCl)C(=O)NCCCl` the value was 131; for `CN1CCN(Cc2ccc(NC(=O)Nc3ccc(Oc4cc(NC(=O)C5CC5)ncn4)cc3)cc2C(F)(F)F)CC1`, 52.7; for `C=CCO/N=C(/C[C@H]1O[C@@H]2O[C@]3(C)CC[C@H]4[C@H](C)CC[C@@H]([C@H]1C)[C@@]24OO3)[C@H]1O[C@@H]2O[C@]3(C)CC[C@H]4[C@H](C)CC[C@@H]([C@H]1C)[C@@]24OO3`, 92.1. `O=C(O)COCCN1CCN(C(c2ccccc2)c2ccc(Cl)cc2)CC1` (centres undefined): for the setting “top concentration 46.1 µM”, the viability was 117. The same measure, in the same setting: with `CON(C)C(=O)N1\N=C(/S[C@]1(CCCN)C2=CC=CC=C2)C3=CC(=CC=C3F)F` the figure was 116; with `CC[C@]1(O)C[C@@H]2CN(CCc3c([nH]c4ccccc34)[C@@](C(=O)OC)(c3cc4c(cc3OC)N(C)[C@H]3[C@@](O)(C(N)=O)[C@H](O)[C@]5(CC)C=CCN6CC[C@]43[C@@H]65)C2)C1`, 114. Same read-out and setting: for `CCCC(CCC)C(=O)[O-]` the value was 88.8; for `NC1=C(Cl)C(=CC=N1)OC2=C(F)C=C(NC(=O)\C3=C\N\C=C(C3=O)\C4=CC=C(F)C=C4)C=C2`, 108; for `C=CC1=C(C(=O)O)N2C(=O)[C@@H](NC(=O)/C(=N\O)c3csc(N)n3)[C@H]2SC1`, 130. `Cc1cn(-c2cc(NC(=O)c3ccc(C)c(Nc4nccc(-c5cccnc5)n4)c3)cc(C(F)(F)F)c2)cn1` showed a viability (top concentration 46.1 µM) of 130.

The compound `Cn1cnc(N)c2ncnc1-2` had a viability (top concentration 46.1 µM) of 82.9. Under “top concentration 46.1 µM”, `O=C(NCC1CCOCC1)c1cnc(Nc2ccc(Cl)cc2Cl)nc1C(F)(F)F` gave a viability of 141.

As to `Clc1ccccc1C(c1ccccc1)(c1ccccc1)n1cccn1`, under “top concentration 46.1 µM”, the viability amounted to 105. The same measure, in the same setting: for `OC(c1cc(C(F)(F)F)nc2c(C(F)(F)F)cccc12)C1CCCCN1` (centres undefined) the value was 97.9. On the same count and under the same terms, with `CN1\C(=C(O)/C2=C(C=C(Cl)S2)[S+]1([O-])=O)C(=O)NC3=NC=CC=C3` the figure was 67.8.
